Measured values reported in patent US7799821B2, “Therapeutic compounds” (Allergan, Inc., priority 2004, dated 2010).
Read-outs that look alike come from different tables or passages of the source.

Assays:
[1] = target: T1, hEP2/Gqs5 (Homo sapiens, UniProt P43116); experiment: FLIPR calcium signal, hEP2; type: cell-based
T1 construct: expressed in transfected cells; host or cells: HEK-293(EBNA)
Procedure: (§1) HEK-293(EBNA) cells, stably expressing one type or subtype of recombinant human prostaglandin receptors (prostaglandin receptors expressed: hDP/Gqs5; hEP1; hEP2/Gqs5; hEP3A/Gqi5; hEP4/Gqs5; hFP; hIP; hTP), were cultured in 100 mm culture dishes in high-glucose DMEM medium containing 10% fetal bovine serum, 2 mM 1-glutamine, 250 μg/ml geneticin (G418) and 200 μg/ml hygromycin B as selection markers, and 100 units/ml penicillin G, 100 μg/ml streptomycin and 0.25 μg/ml amphotericin B. • (b) Calcium Signal Studies on the FLIPR™
(§2) Cells were seeded at a density of 5×10^4 cells per well in Biocoat® Poly-D-lysine-coated black-wall, clear-bottom 96-well plates (Becton-Dickinson) and allowed to attach overnight in an incubator at 37° C. Cells were then washed two times with HBSS-HEPES buffer (Hanks Balanced Salt Solution without bicarbonate and phenol red, 20 mM HEPES, pH 7.4) using a Denley Cellwash plate washer (Labsystems). After 45 minutes of dye-loading in the dark, using the calcium-sensitive dye Fluo-4 AM at a final concentration of 2 μM, plates were washed four times with HBSS-HEPES buffer to remove excess dye leaving 100 μl in each well. Plates were re-equilibrated to 37° C. for a few minutes.
(§3) Cells were excited with an Argon laser at 488 nm, and emission was measured through a 510-570 nm bandwidth emission filter (FLIPR™, Molecular Devices, Sunnyvale, Calif.). Drug solution was added in a 50 μl volume to each well to give the desired final concentration. The peak increase in fluorescence intensity was recorded for each well. On each plate, four wells each served as negative (HBSS-HEPES buffer) and positive controls (standard agonists: BW245C (hDP); PGE2 (hEP1; hEP2/Gqs5; hEP3A/Gqi5; hEP4/Gqs5); PGF2α (hFP); carbacyclin (hIP); U-46619 (hTP), depending on receptor). The peak fluorescence change in each drug-containing well was then expressed relative to the controls.
(§4) Compounds were tested in a high-throughput (HTS) or concentration-response (CoRe) format. In the HTS format, forty-four compounds per plate were examined in duplicates at a concentration of 10^−5 M. To generate concentration-response curves, four compounds per plate were tested in duplicates in a concentration range between 10^−5 and 10^−11 M. The duplicate values were averaged. In either, HTS or CoRe format each compound was tested on at least 3 separate plates using cells from different passages to give an n≧3.

[2] = target: T2, hEP4/Gqs5 (Homo sapiens, UniProt P35408); experiment: FLIPR calcium signal, hEP4; type: cell-based
T2 construct: expressed in transfected cells; host or cells: HEK-293(EBNA)
Procedure: as §1, §2, §3, §4

[3] = target: T3, hEP3A/Gqi5 (Homo sapiens, UniProt P43115); experiment: FLIPR calcium signal, hEP3A; type: cell-based
T3 construct: expressed in transfected cells; host or cells: HEK-293(EBNA)
T3 sequence (P43115 1-390): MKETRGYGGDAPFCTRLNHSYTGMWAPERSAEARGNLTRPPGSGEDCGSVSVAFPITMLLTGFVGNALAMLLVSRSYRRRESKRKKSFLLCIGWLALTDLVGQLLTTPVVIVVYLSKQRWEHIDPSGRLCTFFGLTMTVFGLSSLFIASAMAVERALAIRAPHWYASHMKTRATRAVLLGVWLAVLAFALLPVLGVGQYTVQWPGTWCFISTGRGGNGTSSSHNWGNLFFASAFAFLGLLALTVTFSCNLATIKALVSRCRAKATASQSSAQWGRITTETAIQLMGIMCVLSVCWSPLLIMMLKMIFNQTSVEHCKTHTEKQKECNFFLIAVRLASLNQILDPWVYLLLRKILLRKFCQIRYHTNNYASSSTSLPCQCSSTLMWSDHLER
Procedure: as §1, §2, §3, §4

[4] = target: T4, human EP2 receptors (Homo sapiens, UniProt P43116); experiment: Competition radioligand binding ([3H]PGE2), EP2; settings: for Ki: unit inferred, read-out: EP2 data Ki
T4 construct: expressed in transfected cells; host or cells: HEK 293
Procedure: Competition binding experiments were performed in a medium containing Hank's balanced salt solution, […], membranes (˜60 μg protein) or 2×10^5 cells from HEK 293 cells stably expressing human EP2 receptors, [^3H]PGE2 (10 nM) and various concentrations of test compounds in a total volume of 300 μl. Reaction mixtures were incubated at 23° C. for 60 min, and were filtered over Whatman GF/B filters under vacuum. Filters were washed three times with 5 ml ice-cold buffer containing 50 mM Tris/HCl (pH 7.3). Non-specific binding was estimated in the presence of excess unlabeled PGE2 (10 μM). Binding data fitted to the binding model for a single class of binding sites, using nonlinear regression analysis. IC50 values thus obtained were converted to Ki using the equation of Ki=(IC50/(1+[L]/KD) where [L] represents PGE2 concentration (10 nM) and KD the dissociation constant for [^3H]PGE2 at human EP2 receptors (40 nM).
(§5) HEK-293 cells stably expressing the human or feline FP receptor, or EP1, EP2, or EP4 receptors were washed with TME buffer, scraped from the bottom of the flasks, and homogenized for 30 sec using a Brinkman PT 10/35 polytron. TME buffer was added to achieve a final 40 ml volume in the centrifuge tubes (the composition of TME is 100 mM TRIS base, 20 mM MgCl2, […]; 10N HCl is added to achieve a pH of 7.4).
(§6) The cell homogenate was centrifuged at 19000 r.p.m. for 20 min at 4° C. using a Beckman Ti-60 rotor. The resultant pellet was resuspended in TME buffer to give a final 1 mg/ml protein concentration, as determined by Biorad assay. Radioligand binding competition assays vs. [^3H-]17 —phenyl PGF2α (5 nM) were performed in a 100 μl volume for 60 min. Binding reactions were started by adding plasma membrane fraction. The reaction was terminated by the addition of 4 ml ice-cold TRIS-HCl buffer and rapid filtration through glass fiber GF/B filters using a Brandel cell harvester. The filters were washed 3 times with ice-cold buffer and oven dried for one hour.
(§7) [^3H-] PGE2 (specific activity 180 Ci mmol) was used as the radioligand for EP receptors. [^3H] 17-phenyl PGF2α was employed for FP receptor binding studies. Binding studies employing EP1, EP2, EP4 and FP receptors were performed in duplicate in at least three separate experiments. A 200 μl assay volume was used. Incubations were for 60 min at 25° C. and were terminated by the addition of 4 ml of ice-cold 50 mM TRIS-HCl, followed by rapid filtration through Whatman GF/B filters and three additional 4 ml washes in a cell harvester (Brandel). Competition studies were performed using a final concentration of 5 nM [^3H]—PGE2, or 5 nM [^3H] 17-phenyl PGF2α and non-specific binding determined with 10^−5M of unlabeled PGE2, or 17-phenyl PGF2α, according to receptor subtype studied.

[5] = target: T5, HEK-EBNA cells expressing a PG EP2 receptor subtype (Homo sapiens, UniProt P43116); experiment: cAMP assay, EP2; type: cell-based; settings: unit inferred; read-out: EP2 data cAMP EC50
T5 construct: expressed in transfected cells; host or cells: HEK-EBNA
Procedure: A 384-well drug plate was prepared to contain 6 test compounds, PGE2 and cAMP in 16 serial dilutions in triplicate, using a Biomek station. HEK-EBNA cells expressing a target PG receptor subtype (EP2 or EP4) were suspended in a stimulation buffer (HBSS, 0.1% BSA, 0.5 mM IBMX and 5 mM HEPES, pH 7.4) in a density of 10^4 cells/5 μl. The reaction was initiated by mixing 5 μL drug dilutions with 5 μl of HEK-EBNA cells in a well, carried out for 30 min at room temperature, and followed by the addition of 5 μl anti-cAMP acceptor beads in the control buffer with Tween-20 (25 mM NaCl, 0.03% Tween-20, 5 mM HEPES, pH7.4). After 30 min in the dark at room temperature, the mixtures were incubated with 15 μl biotinylated-cAMP/strepavidin donor beads in Lysis/Detection buffer (0.1% BSA, 0.3% Tween-20 and 5 mM HEPES, pH7.4) for 45 min at the room temperature. Fluorescence changes were read using a Fusion-alpha HT microplate reader.

[6] = target: T6, EP4 receptors (Homo sapiens, UniProt P35408); experiment: Radioligand binding ([3H]PGE2), EP4; settings: unit inferred; read-out: EP4 data KI
T6 construct: expressed in transfected cells; host or cells: HEK-293
Procedure: as §5, §6, §7

[7] = FLIPR Ca2+ signal, HEK-293(EBNA), read-out: FUNCTIONAL EC50 HEP2
[8] = FLIPR Ca2+ signal, HEK-293(EBNA), read-out: FUNCTIONAL EC50 HEP4
[9] = FLIPR Ca2+ signal, HEK-293(EBNA), read-out: FUNCTIONAL EC50 HEP3A
[10] = unit inferred, other columns of the table in nM, read-out: EP2 data flipr EC50
[11] = unit inferred, read-out: EP4 data flipr EC50

T5 sequence (P43116 whole entry): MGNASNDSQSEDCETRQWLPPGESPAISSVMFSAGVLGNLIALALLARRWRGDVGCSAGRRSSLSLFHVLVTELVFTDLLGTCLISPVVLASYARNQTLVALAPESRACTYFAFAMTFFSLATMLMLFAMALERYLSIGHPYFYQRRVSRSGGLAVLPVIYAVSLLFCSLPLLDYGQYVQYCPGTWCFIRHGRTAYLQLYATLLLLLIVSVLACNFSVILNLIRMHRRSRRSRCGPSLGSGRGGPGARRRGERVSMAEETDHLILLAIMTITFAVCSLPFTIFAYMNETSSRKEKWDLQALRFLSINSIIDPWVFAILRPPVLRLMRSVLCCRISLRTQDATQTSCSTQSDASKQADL
T4 sequence (P43116 whole entry): as above
T1 sequence (P43116 whole entry): as above
T2 sequence (P35408 whole entry): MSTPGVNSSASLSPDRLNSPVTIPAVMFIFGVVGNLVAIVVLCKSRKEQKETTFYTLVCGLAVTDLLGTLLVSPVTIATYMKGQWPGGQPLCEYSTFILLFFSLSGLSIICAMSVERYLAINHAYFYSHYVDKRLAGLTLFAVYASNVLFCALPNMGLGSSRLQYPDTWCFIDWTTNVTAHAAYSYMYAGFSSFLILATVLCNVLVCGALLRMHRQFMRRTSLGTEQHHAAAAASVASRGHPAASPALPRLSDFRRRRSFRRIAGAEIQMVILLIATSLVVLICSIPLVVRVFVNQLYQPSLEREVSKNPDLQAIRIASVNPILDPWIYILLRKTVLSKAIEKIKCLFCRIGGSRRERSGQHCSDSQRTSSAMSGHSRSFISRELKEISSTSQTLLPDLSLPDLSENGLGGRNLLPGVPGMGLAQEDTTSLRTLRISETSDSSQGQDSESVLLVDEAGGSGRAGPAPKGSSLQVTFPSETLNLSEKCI
T6 sequence (P35408 whole entry): as above

| Structure (SMILES) | EC50 [1, 7] | EC50 [3, 9] | EC50 [5] | EC50 [1, 10] | Ki [6] | other results |
| --- | --- | --- | --- | --- | --- | --- |
| CCCC1(C(O)c2cccc([C@H]3[C@H](O)CC(=O)[C@@H]3C/C=C\CCCC(=O)OC)c2)CCC1 (stereo partly shown) | > 10000 nM | > 10 µM |  |  |  | EC50 [2, 8]: > 10 µM |
| CCCC1(C(O)c2cccc([C@H]3[C@H](O)CC(=O)[C@@H]3C/C=C\CCCC(=O)O)c2)CCC1 (stereo partly shown) | 5290 nM | 1.7 µM |  |  |  |  |
| CCCC1(C(O)c2cccc([C@@H]3[C@@H](CCCCCCC(=O)O)[C@H](Cl)C[C@H]3O)c2)CCC1 (stereo partly shown) | 1480 nM | 3.12 µM |  |  |  |  |
| COC(=O)CCC/C=C\C[C@@H]1[C@@H](c2ccc(C(C)(C)C)cc2)[C@H](O)C[C@H]1Cl | > 10000 nM | > 10 µM |  |  |  |  |
| CC(C)(C)C(O)c1ccc([C@@H]2[C@@H](CCCCCCC(=O)O)[C@H](Cl)C[C@H]2O)cc1 (stereo partly shown) | 1260 nM |  |  |  |  | EC50 [2, 8]: > 10 µM; IC50 ([4]; read-out: BINDING IC50 HEP2): 3.63 µM |
| CC(C)(C)c1ccc(N2C(=O)CC[C@@H]2COCCCCC(=O)O)cc1 |  |  |  | > 10000 nM | > 10 µM | EC50 [2, 11]: > 10 µM |

Continued, in another order:

| EC50 [1, 7] | EC50 [3, 9] | EC50 [5] | EC50 [1, 10] | Ki [6] | Structure (SMILES) | other results |
| --- | --- | --- | --- | --- | --- | --- |
|  |  | 0.517 µM | > 10000 nM | > 10 µM | CCCCCC(O)c1ccc(N2C(=O)CC[C@@H]2COCc2cccc(C(=O)O)c2)cc1 (stereo partly shown) |  |
|  |  | 0.027 µM | 426 nM | > 10 µM | CCCC(O)c1ccc(N2C(=O)CC[C@@H]2COCc2ccc(C(=O)O)s2)cc1 (stereo partly shown) | Ki [4]: 1.64 µM |
|  |  | 0.008 µM | 215 nM | > 10 µM | CCCCCC(=O)c1ccc(N2C(=O)CC[C@@H]2COCc2ccc(C(=O)O)s2)cc1 | Ki [4]: 0.163 µM |
|  |  |  | > 10000 nM | > 10 µM | CC(C)(C)c1ccc(N2C(=O)CC[C@@H]2COCc2cccc(C(=O)O)c2)cc1 | EC50 [2, 11]: > 10 µM |
|  |  | 0.026 µM | 388 nM | > 10 µM | CCCCCC(O)c1ccc(N2C(=O)CC[C@@H]2COCc2ccc(C(=O)O)o2)cc1 (stereo partly shown) | EC50 ([3]; read-out: Other Receptors EC50 hEP3A): 1.93 µM; Ki [4]: 2.03 µM |
